# Bridge positions count the residues as written; N and C are the ends. Square brackets hold non-standard residues; d marks the D form. Peptide text beside a SMILES is read from it. R8 = C=CCCCCCC[C@@](C)(N)C(=O)O; S5 = C=CCCC[C@](C)(N)C(=O)O; Nle = CCCC[C@H](N)C(=O)O
# How the values were obtained:
# [1] = test system: HRE-bla ME-180 cells; assay: Cell proliferation assay (viability, MTT, 1% FBS); type: cell-based, human
# Method in brief: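 Viable cell number was measured with the CellTiter 96 (MTT) kit after compounds were applied for a 16 h normoxic (21% O2) pretreatment, followed by further normoxic or hypoxic (1% O2) culture. Cells: 2×10^4 ME-180 per well, Opti-MEM + 1% FBS, 0.5% DMSO vehicle.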
# [2] = test system: HRE-bla ME-180 cells; assay: Reporter gene assay (HRE-bla ME-180 HIF reporter, GeneBLAzer); type: cell-based, human; settings: for EC50: 24 hour normoxia
# Method in brief: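 A FRET β-lactamase readout of HIF transcription was used. After compound treatment in 0.3% DMSO/media under normoxic conditions, 20 μl of 6× LiveBLAzer-FRET B/G (CCF4-AM) substrate was added. Plates sat 3 hr at room temperature in the dark and were read at 409 Ex/460Em and 409Ex/530Em on a Synergy 2. Inhibition was compared against DMSO vehicle controls, with chetomin as positive control.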
# [3] = molecular target: T1, flag-tagged HIF1α (AA 786-826) / His6-tagged p300 (AA 323-423) complex (Homo sapiens, UniProt Q09472); assay: HIF1α p300 displacement assay (TR FRET, +CHAPS); type: binding; settings: read-out: IC50 (nM) (HIF1α_p300 Displacement + CHAPS)
# T1 construct: His6-tagged p300 (AA 323-423); made in house; host or cells: E. coli (pETDuet vector)
# Method in brief: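 In this TR-FRET displacement format, peptides compete HIF1α C-terminal transactivation domain off p300-CH. They were preincubated 1 h at room temperature with 300 nM complex in HEPES pH 7.4/NaCl buffer with 7.5 mM CHAPS and 1 mM DTT. Anti-His-D2 (4 nM) and anti-Flag-K (0.5 μM) followed for 2 h, and a one-site fit of the fluorescence ratio gave IC50.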
EC50 [2] [µM],IC50 [3] [nM],SMILES,Viability 1% FBS AVG (MTT V3-24 hr Normoxia) (μM) [1],18 h Avg % max inhibition at top conc (HIF Rptr-24 hrs normoxia) (μM) [2]
> 30,> 700,CCCC[C@H](NC(=O)[C@H](CCC(=O)O)NC(=O)[C@]1(C)CCCC=CCCCCCC[C@@](C)(NC(=O)[C@H](CCC(=O)O)NC(=O)[C@H](CC(=O)O)NC(=O)[C@@H](NC(=O)[C@H](CC(N)=O)NC(=O)[C@@H](NC(=O)[C@H](CCC(N)=O)NC(=O)[C@H](CC(=O)O)NC(=O)[C@H](CC(C)C)NC(=O)[C@H](C)NC(=O)[C@H](CCCNC(=N)N)NC(=O)[C@H](CC(C)C)NC(=O)[C@H](CC(C)C)NC(=O)[C@H](CCC(=O)O)NC(=O)[C@H](CCC(=O)O)NC(=O)CNC(=O)[C@H](CCC(N)=O)NC(=O)[C@H](CC(C)C)NC(=O)[C@H](CC(C)C)NC(C)=O)C(C)C)[C@@H](C)CC)C(=O)N[C@@H](C(C)C)C(=O)N[C@@H](CC(C)C)C(=O)N[C@@H](CCCC)C(=O)N[C@@H](CO)C(=O)N[C@@H](CC(C)C)C(=O)N[C@@H](C(C)C)C(=O)N1)C(N)=O [SP-336] (Ac-LLQGEELLRALDQVNIDE[R8]VL[Nle]SLV[S5]E[Nle]-NH2; staple 19-26),++++ (≥30: ++++),+ (<10: +)
> 30,≤ 200,"CCCC[C@H](NC(=O)[C@]1(C)CCCC=CCCC[C@](C)(NC(=O)[C@H](CCCC)NC(=O)[C@H](CC(C)C)NC(=O)[C@@H](NC(=O)[C@H](CCC(=O)O)NC(=O)[C@H](CCC(=O)O)NC(=O)[C@H](C)NC(=O)[C@@H](NC(=O)[C@H](CC(N)=O)NC(=O)[C@@H](NC(=O)[C@]2(C)CCCC=CCCCCCC[C@@](C)(NC(=O)[C@H](CCC(=O)O)NC(=O)CNC(=O)[C@H](CCC(N)=O)NC(=O)[C@H](CC(C)C)NC(=O)[C@H](CC(C)C)NC(C)=O)C(=O)N[C@@H](CC(C)C)C(=O)N[C@@H](CC(C)C)C(=O)N[C@@H](CCCNC(=N)N)C(=O)N[C@@H](C)C(=O)N[C@@H](CC(C)C)C(=O)N[C@@H](CC(=O)O)C(=O)N2)C(C)C)[C@@H](C)CC)C(C)C)C(=O)N[C@@H](CC(C)C)C(=O)N[C@@H](C(C)C)C(=O)N[C@@H]([C@@H](C)CC)C(=O)N1)C(N)=O [SP-349] (Ac-LLQGE[R8]LLRALD[S5]VNIAEEVL[Nle][S5]LVI[S5][Nle]-NH2; staple 6-13, 23-27)",++++ (≥30: ++++),+++ (≤25 but <50: +++)
> 30,400 to 700,"CCCC[C@H](NC(=O)[C@H](CC(C)C)NC(=O)[C@@H](NC(=O)[C@H](CCC(=O)O)NC(=O)[C@H](CCC(=O)O)NC(=O)[C@H](CC(=O)O)NC(=O)[C@@H](NC(=O)[C@H](CC(N)=O)NC(=O)[C@@H](NC(=O)[C@]1(C)CCCC=CCCCCCC[C@@](C)(NC(=O)[C@H](CCC(=O)O)NC(=O)CNC(=O)[C@H](CCC(N)=O)NC(=O)[C@H](CC(C)C)NC(=O)[C@H](CC(C)C)NC(C)=O)C(=O)N[C@@H](CC(C)C)C(=O)N[C@@H](CC(C)C)C(=O)N[C@@H](CCCNC(=N)N)C(=O)N[C@@H](C)C(=O)N[C@@H](CC(C)C)C(=O)N[C@@H](CC(=O)O)C(=O)N1)C(C)C)[C@@H](C)CC)C(C)C)C(=O)N[C@@]1(C)CCCC=CCCC[C@@](C)(C(=O)N[C@@H](CCCC)C(=O)N[C@@H](C)C(=O)N[C@@H](CC(C)C)C(N)=O)NC(=O)[C@H]([C@@H](C)CC)NC(=O)[C@H](C(C)C)NC(=O)[C@H](CC(C)C)NC1=O [SP-372] (Ac-LLQGE[R8]LLRALD[S5]VNIDEEVL[Nle][S5]LVI[S5][Nle]AL-NH2; staple 6-13, 23-27)",++++ (≥30: ++++),++++ (≥50: ++++)

# Continued, compound first:
SMILES,EC50 [2] [µM],IC50 [3] [nM],Viability 1% FBS AVG (MTT V3-24 hr Normoxia) (μM) [1],18 h Avg % max inhibition at top conc (HIF Rptr-24 hrs normoxia) (μM) [2]
CCCC[C@H](NC(=O)[C@H](CCC(=O)O)NC(=O)[C@@H](NC(=O)[C@@H](NC(=O)[C@H](CC(C)C)NC(=O)[C@]1(C)CCCC=CCCC[C@](C)(NC(=O)[C@H](CCC(=O)O)NC(=O)[C@H](CC(=O)O)NC(=O)[C@@H](NC(=O)[C@H](CC(N)=O)NC(=O)[C@@H](NC(=O)[C@H](CCC(N)=O)NC(=O)[C@H](CC(=O)O)NC(=O)[C@H](CC(C)C)NC(=O)[C@H](C)NC(=O)[C@H](CCCNC(=N)N)NC(=O)[C@H](CC(C)C)NC(=O)[C@H](CC(C)C)NC(=O)[C@H](CCC(=O)O)NC(=O)[C@H](CCC(=O)O)NC(=O)CNC(=O)[C@H](CCC(N)=O)NC(=O)[C@H](CC(C)C)NC(=O)[C@H](CC(C)C)NC(C)=O)C(C)C)[C@@H](C)CC)C(=O)N[C@@H](C(C)C)C(=O)N[C@@H](CC(C)C)C(=O)N[C@@H](CCCC)C(=O)N1)C(C)C)[C@@H](C)CC)C(N)=O [SP-334] (Ac-LLQGEELLRALDQVNIDE[S5]VL[Nle][S5]LVIE[Nle]-NH2; staple 19-23),> 30,200 to 400,++++ (≥30: ++++),+ (<10: +)
CCCC[C@@H]1NC(=O)[C@H](CC(C)C)NC(=O)[C@H](C(C)C)NC(=O)[C@@](C)(NC(=O)[C@H](CCC(=O)O)NC(=O)[C@H](CC(=O)O)NC(=O)[C@@H](NC(=O)[C@H](Cc2ccccc2)NC(C)=O)[C@@H](C)CC)CCCC=CCCCC2(CCCC=CCCC[C@](C)(C(=O)N[C@@H](CCCC)C(=O)N[C@@H](C)C(=O)N[C@@H](CC(C)C)C(N)=O)NC(=O)[C@H]([C@@H](C)CC)NC(=O)[C@H](C(C)C)NC(=O)[C@H](CC(N)=O)NC2=O)NC1=O (stereo partly drawn) [SP-210],5 to 15,200 to 400,+ (<5: +),++++ (≥50: ++++)
CCCC[C@H](NC(=O)[C@H](Cc1ccccc1)NC(=O)[C@@H](NC(=O)[C@H](C)NC(=O)[C@H](CCC(N)=O)NC(=O)[C@H](CC(=O)O)NC(=O)[C@@H](NC(=O)[C@H](Cc1ccccc1)NC(C)=O)[C@@H](C)CC)C(C)C)C(=O)N[C@@]1(C)CCCC=CCCC[C@@](C)(C(=O)N[C@@H](CCCNC(=N)N)C(=O)N[C@@H](C)C(=O)N[C@@H](CC(C)C)C(=O)N[C@@H](CC(C)C)C(N)=O)NC(=O)[C@H]([C@@H](C)CC)NC(=O)[C@H](C(C)C)NC(=O)[C@H](CC(C)C)NC1=O [SP-256] (Ac-FIDQAVF[Nle][S5]LVI[S5]RALL-NH2; staple 9-13),≤ 5,> 700,++ (≤5 but <15: ++),++++ (≥50: ++++)
CC[C@H](C)[C@H](NC(=O)[C@H](CCCNC(=N)N)NC(=O)[C@H](CC(=O)O)NC(=O)[C@H](CC(C)C)NC(=O)[C@H](C)NC(=O)[C@H](CCSC)NC(=O)[C@H](CCC(=O)O)NC(=O)[C@@H](NC(=O)[C@@H](NC(=O)[C@H](CC(C)C)NC(=O)[C@]1(C)CCCC=CCCC[C@](C)(NC(=O)[C@H](CCC(=O)O)NC(=O)[C@H](CC(=O)O)NC(=O)[C@@H](NC(=O)[C@H](Cc2ccccc2)NC(C)=O)[C@@H](C)CC)C(=O)N[C@@H](C(C)C)C(=O)N[C@@H](CC(C)C)C(=O)N[C@@H](CCSC)C(=O)N1)C(C)C)[C@@H](C)CC)C(=O)N[C@@H](CCCCN)C(=O)N[C@@H](CCC(=O)O)C(N)=O [SP-113] (Ac-FIDE[S5]VLM[S5]LVIEMALDRIKE-NH2; staple 5-9),5 to 15,400 to 700,++++ (≥30: ++++),++++ (≥50: ++++)
"CCCC[C@H](NC(=O)[C@H](CCC(=O)O)NC(=O)[C@@H](NC(=O)[C@]1(C)CCCC=CCCC[C@](C)(NC(=O)[C@@H](NC(=O)[C@H](CCC(=O)O)NC(=O)[C@H](CCC(=O)O)NC(=O)[C@H](CC(=O)O)NC(=O)[C@@H](NC(=O)[C@H](CC(N)=O)NC(=O)[C@@H](NC(=O)[C@]2(C)CCCC=CCCCCCC[C@@](C)(NC(=O)[C@H](CCC(=O)O)NC(=O)CNC(=O)[C@H](CCC(N)=O)NC(=O)[C@H](CC(C)C)NC(=O)[C@H](CC(C)C)NC(C)=O)C(=O)N[C@@H](CC(C)C)C(=O)N[C@@H](CC(C)C)C(=O)N[C@@H](CCCNC(=N)N)C(=O)N[C@@H](C)C(=O)N[C@@H](CC(C)C)C(=O)N[C@@H](CC(=O)O)C(=O)N2)C(C)C)[C@@H](C)CC)C(C)C)C(=O)N[C@@H](CCCC)C(=O)N[C@@H](CO)C(=O)N[C@@H](CC(C)C)C(=O)N1)[C@@H](C)CC)C(=O)NCC(N)=O [SP-305] (Ac-LLQGE[R8]LLRALD[S5]VNIDEEV[S5][Nle]SL[S5]IE[Nle]G-NH2; staple 6-13, 21-25)",> 30,≤ 200,++++ (≥30: ++++),++++ (≥50: ++++)
CCCC[C@@H]1NC(=O)[C@H](CC(C)C)NC(=O)[C@H](C(C)C)NC(=O)[C@@](C)(NC(=O)[C@H](CCC(=O)O)NC(=O)[C@H](CC(=O)O)NC(=O)[C@@H](NC(=O)[C@H](Cc2ccccc2)NC(C)=O)[C@@H](C)CC)CCCC=CCCCC2(CCCC=CCCC[C@](C)(C(=O)N[C@@H](CCCNC(=N)N)C(=O)N[C@@H](C)C(=O)N[C@@H](CC(C)C)C(N)=O)NC(=O)[C@H]([C@@H](C)CC)NC(=O)[C@H](C(C)C)NC(=O)[C@H](CC(C)C)NC2=O)NC1=O (stereo partly drawn) [SP-213],> 30,> 700,++++ (≥30: ++++),+ (<10: +)

# Reference: patent US20190225650A1, “PEPTIDOMIMETIC MACROCYCLES AND USE THEREOF IN REGULATING HIF1ALPHA” (AILERON THERAPEUTICS, INC., priority 2013, published 2019)
